According to patent US4755385A, “Oral pharmaceutical preparations containing 9-deoxo-11-deoxy-9,11-[imino[2-(2-methoxyethoxy)-ethylidene]-oxy]-(9S)-e rythromycin” (priority 1985, dated 1988):
Where two headings read alike, the source gives them in different places.

Key:
[1] = Stability of the active substance as a function of pH (% intact substance)
[2] = DE-A1-2,515,075; particularly when given dissolved, e.g. intravenously; cited from earlier work

For `CC[C@H]1OC(=O)[C@H](C)[C@@H](O[C@H]2C[C@@](C)(OC)[C@@H](O)[C@H](C)O2)[C@H](C)[C@@H](O[C@@H]2O[C@H](C)C[C@H](N(C)C)[C@H]2O)[C@](C)(O)C[C@@H](C)C(=O)[C@H](C)[C@@H](O)[C@]1(C)O` [erythromycin, reference compound], the “chemical stability around pH 5.5” value was “chemically stable long enough to be resorbed”, the remaining at 0.5 h ([1]; pH 1.3) was 30% and the remaining at 1 h ([1]; pH 1.3) was 10%. For the same compound, the remaining at 0.5 h ([1]; pH 4.5) was 55%, the remaining at 1 h ([1]; pH 4.5) was 50% and the remaining at 0.5 h ([1]; pH 5.5) was 100%. The remaining at 1 h ([1]; pH 5.5) was 85%.

For `CC[C@H]1OC(=O)[C@H](C)[C@@H](O[C@H]2C[C@@](C)(OC)[C@@H](O)[C@H](C)O2)[C@H](C)[C@@H](O[C@@H]2O[C@H](C)C[C@H](N(C)C)[C@H]2O)[C@](C)(O)C[C@@H](C)[C@@H]2NC(COCCOC)O[C@H]([C@H]2C)[C@]1(C)O` (stereo partly drawn) [AS-E 136, 9-deoxo-11-deoxy-9,11-[imino[2-(2-methoxyethoxy)-ethylidene]oxy]-(9S)-erythromycin], the antibacterial activity [2] is listed as “particularly good antibacterial activity”, the “stability in acidic media / gastric juices” value ([1]; gastric juices (pH 1.0 to 2.0)) is listed as “usually destroyed in a short time” and the remaining at 0.5 h ([1]; pH 1) is listed as 10%. The remaining at 0.5 h ([1]; pH 6) was 20%, the remaining at 0.5 h ([1]; pH 6.5) was 20% and the remaining at 0.5 h ([1]; pH 7) was 50%. The remaining at 0.5 h ([1]; pH 7.5) was 80%, the remaining at 0.5 h ([1]; pH 8) was 95% and the “chemical stability around pH 5.5” value ([1]; pH around 5.5) was “retains its susceptibility to hydrolysis unchanged”.
